The values below come from patent US6294564A, “Benzimidazoles and benzoxazoles” (Byk Gulden Lomberg Chemische Fabrik GmbH, priority 1998, dated 2001).

The assay deals with PDE4. The experiment in a line: Inhibition of PDE4 Activity (activity test according to Bauer and Schwabe adapted to microtitre plates). It counts as biochemical. The settings on record: Inhibition of the PDE4 Activity; inhibitory concentration as -log IC50 (mol/l).
With `COc1ccc(-c2nc3cc(C(=O)O)ccc3o2)c2c1OC1(CCOCC1)C2` [compound 6, 2-(2,3-Dihydro-7-methoxybenzofuran-2-spiro-4'-tetrahydropyran-4-yl)benzoxazole-5-carboxylic acid], the “-log IC50” value worked out at 7.05. Under `COc1ccc(-c2nc3cc(C(N)=O)ccc3o2)c2c1OC1(CCOCC1)C2` [compound 7, 2-(2,3-Dihydro-7-methoxybenzofuran-2-spiro-4'-tetrahydropyran-4-yl)benzoxazole-5-carboxamide] stands 6.80. Under `COc1ccc(-c2nc3ccc(C(N)=O)cc3o2)c2c1OC1(CCOCC1)C2` [compound 12, 2-(2,3-Dihydro-7-methoxybenzofuran-2-spiro-4'-tetrahydropyran-4-yl)benzoxazole-6-carboxamide] stands 6.42; under `COc1ccc(-c2nc3ccc(C(=O)O)cc3o2)c2c1OC1(CCCC1)C2` [compound 8, 2-(2,3-Dihydro-7-methoxybenzofuran-2-spiro-1'-cyclopentan-4-yl)benzoxazole-6-carboxylic acid], 8.21; under `COc1ccc(-c2nc3cc(C(=O)O)ccc3[nH]2)c2c1OC1(CCCC1)C2` [compound 1, 2-(2,3-Dihydro-7-methoxybenzofuran-2-spiro-1'-cyclopentan-4-yl)benzimidazole-5-carboxylic acid], 7.87. In the case of `COc1ccc(-c2nc3ccc(C(=O)OCCN4CCOCC4)cc3o2)c2c1OC1(CCCC1)C2` [compound 9, 2-morpholin-4-ylethyl 2-(2,3-dihydro-7-methoxybenzofuran-2-spiro-1'-cyclopentan4-yl)-benzoxazole-6-carboxylate] it was 6.90; in that of `COc1ccc(-c2nc3cc(C(N)=O)ccc3[nH]2)c2c1OC1(CCCC1)C2` [compound 2, 2-(2,3-Dihydro-7-methoxybenzofuran-2-spiro-1'-cyclopentan-4-yl)benzimidazole-5-carboxamide], 7.69; in that of `COc1ccc(-c2nc3cc(C(=O)O)ccc3o2)c2c1OC1(CCCC1)C2` [compound 3, 2-(2,3-Dihydro-7-methoxybenzofuran-2-spiro-1'-cyclopentan-4-yl)benzoxazole-5-carboxylic acid], 7.65. On to `COc1ccc(-c2nc3ccc(C(=O)O)cc3o2)c2c1OC1(CCOCC1)C2` [compound 11, 2-(2,3-Dihydro-7-methoxybenzofuran-2-spiro-4'-tetrahydropyran-4-yl) benzoxazole-6-carboxylic acid], for which the “-log IC50” value amounted to 6.85.
